Target: T1, Amyloid β (1-42) (Homo sapiens, UniProt P05067)
T1 construct: Amyloid β (1-42); purchased Bachem AG, Bubendorf, Switzerland (printed 'Bachem A G, Budendorf')
Assay: Detection of conformational change to β-sheet structure of amyloid β (1-42) film immobilized on a substrate, by fluorescent dye binding
Type: biochemical
Conditions: film immersed into 1 mM ZnCl2 in 10 mM Hepes pH 7.4, 0.15 M NaCl for 10 minutes; dye 1-fluoro-2,5-bis(3-carboxy-4-hyrdoxystyryl)benzene; compared with buffer only and with EDTA after ZnCl2
Method: Amyloid β (1-42) (Bachem A G, Budendorf, Switzerland) was dissolved in 0.1% ammonia water at the concentration of 1 mg/mL. This solution was sprayed under dry air using an electrospry device described in WO 2002-511792 or an immobilzing device described in Japanese Patent Publication No. 2003-136005. The solution was permeated through a mask with holes of 400 μm in length and 800 μm in width, and then a film having 1 μm thickness was prepared using an electrospray method (the EDS method), then protein was cross-linked at 30° C. for 5 minutes by glutaraldehyde.
The resulting film was immersed into 10 mM Hepes pH 7.4 buffer solution (hereinafter referred to as “the buffer solution”) containing 0.15 M NaCl for 10 minutes, in the presence or absence of ZnCl2, except that the EDTA sample was only reacted with 1 mM ZnCl2 and then immersed in a buffer solution containing 1 mM EDTA for 10 minutes. After that the film was immersed into a solution of 1-fluoro-2,5-bis(3-carboxy-4-hyrdoxystyryl)benzene (Dojindo Chemical Laboratory Co., Kumamoto) that binds to β-sheet structure, prepared to the final concentration of 0.01% using 50% ethanol solution. Furthermore, the film was immersed into a solution of saturated lithium carbonate, then it was lightly washed by 50% ethanol, then dried and observed under fluorescent microscope. […]

T1 sequence (P05067 672-713): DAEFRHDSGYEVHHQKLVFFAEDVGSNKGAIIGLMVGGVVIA

[Cl-].[Cl-].[Zn+2] [ZnCl2]
fluorescent intensity of the film (relative intensity), indicating change of amyloid β to β sheet structure: the highest

Reference: patent US20080039337A1, “Method for Detection of Conformational Change of a Protein Immobilized on a Substrate” (FUENCE CO., LTD., priority 2004, published 2008)
